Holding throughout (type): cell-based
Assay [1] has as its target T1, rP2X3 (Rattus norvegicus, UniProt P49654).
T1 construct: expressed in transfected cells; host or cells: HEK293
T1 sequence (P49654 1-397): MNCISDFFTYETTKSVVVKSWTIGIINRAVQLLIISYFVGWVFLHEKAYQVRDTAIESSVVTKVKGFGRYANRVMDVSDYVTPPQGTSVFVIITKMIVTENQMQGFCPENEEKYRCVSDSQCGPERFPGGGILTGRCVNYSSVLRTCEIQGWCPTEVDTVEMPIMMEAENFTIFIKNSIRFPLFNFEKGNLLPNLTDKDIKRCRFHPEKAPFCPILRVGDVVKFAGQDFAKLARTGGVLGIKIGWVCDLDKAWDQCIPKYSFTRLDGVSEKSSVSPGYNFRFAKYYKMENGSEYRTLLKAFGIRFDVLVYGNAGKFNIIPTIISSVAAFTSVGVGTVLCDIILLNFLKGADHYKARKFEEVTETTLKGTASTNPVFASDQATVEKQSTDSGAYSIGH
The assay can be described thus: Inhibitory activity against P2X3 in rats (electrophysiological method).

The target in assay [2] is T2, gpP2X3 (Cavia porcellus, UniProt H0VWY5).
T2 sequence (H0VWY5 1-391): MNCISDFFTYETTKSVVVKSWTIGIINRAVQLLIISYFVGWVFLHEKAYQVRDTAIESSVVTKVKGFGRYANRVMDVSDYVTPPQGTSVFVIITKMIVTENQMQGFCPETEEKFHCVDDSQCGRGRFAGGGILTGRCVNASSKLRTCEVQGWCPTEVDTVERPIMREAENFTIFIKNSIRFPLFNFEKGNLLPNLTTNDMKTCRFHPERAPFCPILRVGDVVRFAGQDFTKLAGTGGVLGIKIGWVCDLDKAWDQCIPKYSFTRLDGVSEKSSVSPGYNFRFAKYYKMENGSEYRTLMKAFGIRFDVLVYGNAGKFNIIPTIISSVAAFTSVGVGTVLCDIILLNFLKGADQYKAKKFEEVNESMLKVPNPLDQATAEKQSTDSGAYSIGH
Nature of the assay: Inhibitory activity against P2X3 in guinea pigs (electrophysiological method). The following applies: guinea pig P2X3, electrophysiological method.

Assay [3] has as its target T3, human PAR-1 (Homo sapiens, UniProt P25116).
T3 construct: host or cells: HEK293/Ga15 recombinant cell line
T3 sequence (P25116 22-425): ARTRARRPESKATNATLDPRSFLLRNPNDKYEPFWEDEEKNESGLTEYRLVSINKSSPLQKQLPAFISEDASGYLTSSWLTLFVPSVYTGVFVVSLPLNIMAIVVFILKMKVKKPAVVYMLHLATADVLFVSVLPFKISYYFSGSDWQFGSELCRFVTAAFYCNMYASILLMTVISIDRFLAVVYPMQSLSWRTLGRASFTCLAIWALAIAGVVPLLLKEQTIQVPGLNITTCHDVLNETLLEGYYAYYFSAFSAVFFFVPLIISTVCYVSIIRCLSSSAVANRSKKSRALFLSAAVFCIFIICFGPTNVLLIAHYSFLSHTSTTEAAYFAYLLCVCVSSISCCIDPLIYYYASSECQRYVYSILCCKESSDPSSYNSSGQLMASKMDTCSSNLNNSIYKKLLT
Nature of the assay: Inhibitory activity against PAR-1, calcium ion flux fluorescence method (FLIPR). The following applies: HEK293/Ga15 cells expressing human PAR-1, TFLLR-NH2 10 μM, starting concentration 30 μM. As to the method:
The inhibitory activity of the title compounds against human PAR-1 was determined by a calcium ion flux fluorescence method (an FLIPR method). The method thereof was reported in the literature of Zhong et al. [Zhong et al. J Biomol Struct Dyn, 2017, 35(13):2853].
An HEK293/Ga15 recombinant cell line (HD Biosciences, Shanghai, China) stably expressing human PAR-1 was cultured in a DMEM (Thermo Fisher Scientific, Shanghai) culture solution (containing 10% calf serum, 800 μg/mL G418). Incubator conditions were 37° C. and an air humidity with 5% CO2.
On the first day, 20 μL per well of PAR-1 cells at a concentration of 4E+5 cells/mL were seeded in a 384-well analysis plate (Corning 3712). […] On the second day, a culture solution in each well was poured off. Then, 20 μL of 1×loading dye (2 μM Fluo-8 AM in 1×HBSS with 20 mM HEPES, 1 mM Probenecid, 0.025% Pluronic F-127 assay buffer) was added in each well. The cell analysis plate was cultured for 1 hour at a room temperature.
The compounds were dissolved into 100% DMSO to prepare a 10 mM stock solution, which was stored at −20° C. On the day of use, the compound stock solution was thawed at a room temperature. Each compound was subjected to 1:3 serial dilution at 11 concentration points with a DMEM culture solution with a starting concentration of 30 μM. Each compound was subjected to double dilution for testing. A positive control compound was diluted in the same way with SCH79797 with a starting concentration of 30 μM.
The cell analysis plate was placed in a FLIPR instrument (Molecular Device) and 10 μL of compounds (3× of a final concentration) in a compound plate was added to corresponding wells of the cell analysis plate. After 10 minutes, 10 μL of TFLLR-NH2 (TFA) (a final concentration of 10 μM) was added to each well to stimulate generation of intracellular calcium flux signals. Ca^++-dependent fluorescence signals were continuously monitored at excitation wavelengths of 470/495 nm and emission wavelengths of 515/575 nm to analyze the inhibitory activity of the compounds.
Data were collected and analyzed by using an FLIPR program. The inhibitory (or agonistic) activity of the compounds at each concentration was assessed by fluorescence peaks. IC50 values of the compounds were calculated by using EXCEL and PRISM programs.

A word on the IC50: it is the concentration at which inhibition is half-maximal.

Take `Cc1ccc(C2=NN(C(=O)N[C@H](C)c3ccc(C(F)(F)F)nc3)C[C@@H]2N2CCOC2=O)cc1` [Compound 22]: the values for the IC50 in assay [1], in assay [2] and in assay [3] were 90 nM, 297 nM and more than 30000 nM, respectively.

As for `CCOC(=O)N(C)[C@H]1CN(C(=O)N[C@H](C)c2cnc(C(F)(F)F)nc2)N=C1c1ccc(C)cc1` [Compound 4, (S)-4-(N-methyl-N-ethoxycarbonylamino)-3-(4-methylphenyl)-N-((R)-1-(2-(trifluoromethyl)pyrimidin-5-yl)ethyl)-4,5-dihydro-1H-pyrazol-1-carboxamide], the IC50 in assay [1] was 165 nM; in assay [2], 421 nM; in assay [3], more than 30000 nM.

Values taken from US12668589B2, “N-formamidopyrazoline derivative as P2X3 receptor antagonist and use thereof” (HANGZHOU WESTAN PHARMACEUTICAL TECHNOLOGY CO., LTD, priority 2020, dated 2026).
